Assay [1] addresses T1, Human V1b receptor (Homo sapiens, UniProt P47901).
T1 sequence (P47901 1-424): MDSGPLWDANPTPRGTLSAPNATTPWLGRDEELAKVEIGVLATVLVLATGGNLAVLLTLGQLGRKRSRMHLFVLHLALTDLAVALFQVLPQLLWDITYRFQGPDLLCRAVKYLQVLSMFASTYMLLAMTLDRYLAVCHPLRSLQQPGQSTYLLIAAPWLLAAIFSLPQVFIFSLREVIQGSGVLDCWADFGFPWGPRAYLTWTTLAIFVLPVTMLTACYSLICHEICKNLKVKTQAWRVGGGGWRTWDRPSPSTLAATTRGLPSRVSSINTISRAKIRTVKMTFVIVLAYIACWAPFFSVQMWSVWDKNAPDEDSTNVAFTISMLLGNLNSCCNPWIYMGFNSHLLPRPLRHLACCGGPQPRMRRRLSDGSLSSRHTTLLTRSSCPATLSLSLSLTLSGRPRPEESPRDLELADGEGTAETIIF
Description: Measurement of V1b receptor antagonistic activity (AVP-induced Fluo-4 fluorescence, FDSS). The assay is classed as cell-based. The arrangement: expressed in transfected cells. The conditions noted are these: CHO cells stably expressing human V1b receptor; AVP 2.5 nmol/L; 30 minutes preincubation with test compound. On the procedure:
CHO cells so modified as to express human V1b receptor in a stable manner were cultured in Ham's F-12 medium (containing 10% FBS and 0.5 mg/mL Geneticin). On the day before the test, seeding was conducted at a density of 20,000 cells/well in a 96-well poly-D-lysine coated black plate. On the day of the test, the culture medium was removed, and a loading solution (1×HBSS, 10 mmol/L HEPES, 0.1% bovine serum albumin, 1.25 mmol/L Probenecid, 0.02% Pluronic F-127, 1.5 μmol/L Fluo-4-AM, pH 7.4) was added to each well, followed by incubation in a CO2 incubator for an hour. After the incubation, the loading solution was removed. A test solution (1×HBSS, 10 mmol/L HEPES, 0.1% bovine serum albumin, 1.25 mmol/L Probenecid, pH 7.4) containing any one of test compounds was added to wells, followed by incubation in a CO2 incubator for 30 minutes. The test compound was serially diluted with DMSO so that it would have final concentrations of 0.1 nmol/L to 1 μmol/L at the time of assaying. After the incubation, fluorescence intensity levels were measured and AVP added by means of FDSS (Hamamatsu Photonics K.K.); AVP was added to give a final concentration of 2.5 nmol/L at the time of assaying. […] The fluorescence level in a well to which neither test compound nor AVP was added was defined as 0%, and the fluorescence level in a well to which only AVP was added and no test compound was added was defined as 100%. A dose-response curve was plotted from fluorescence levels after the addition of AVP in the presence of a test compound at various concentrations, and the 50% inhibitory concentration (IC50 value) of the compound was calculated.

Assay [2] deals with T1, Human V1b receptor. Description: Binding test for V1b receptor ([3H]AVP displacement, crude membrane preparation). Further details: expressed in transfected cells; host or cells: 293FT cells (transient expression). The conditions noted are these: [3H]AVP 0.4 to 1 nmol/L; membranes of 293FT cells transiently expressing human V1b receptor; room temperature, 60 minutes. On the procedure: Human V1b receptor was transiently expressed in 293FT cells, which were then recovered and homogenated in a 15 mmol/L tris-hydrochloric acid buffer (pH 7.4 and containing 2 mmol/L magnesium chloride, 0.3 mmol/L ethylenediaminetetracetic acid, and 1 mmol/L glycol ether diaminetetraacetic acid). The resulting homogenate was centrifuged at 50,000×g at 4 ° C. for 20 minutes. The precipitate was resuspended in a 75 mmol/L tris-hydrochloric acid buffer (pH 7.4 and containing 12.5 mmol/L magnesium chloride, 0.3 mmol/L ethylenediaminetetracetic acid, 1 mmol/L glycol ether diaminetetraacetic acid, and 250 mmol/L sucrose) to give a crude membrane preparation, which was stored at −80° C. until the binding test was initiated. In the binding test, the crude membrane preparation was diluted with a 50 mmol/L tris-hydrochloric acid buffer (pH 7.4 and containing 10 mmol/L magnesium chloride and 0.1% bovine serum albumin) and mixed with each test compound and [^3H]AVP (final concentration: 0.4 to 1 nmol/L), followed by incubation at room temperature for 60 minutes. The test compound was serially diluted with DMSO so that it would have final concentrations of 0.01 nmol/L to […] at the time of mixing. After the incubation, the mixture was suction filtered through a GF/C filter that was preliminarily impregnated with 0.3% polyethyleneimine. The GF/C filter was dried and after adding a scintillator, the residual radioactivity on the filter was measured using TopCount (PerkinElmer Inc.). The radioactivity in the presence of unlabeled AVP at 10 μmol/L was defined as 0%, and the radioactivity in the absence of unlabeled AVP was defined as 100%. A dose-response curve was plotted from radioactivities in the presence of a test compound at various concentrations, and the 50% inhibitory concentration (IC50 value) of the test compound was calculated.

This is an account of results in patent publication US20150045551A1, “FUSED AZOLE DERIVATIVE” (TAISHO PHARMACEUTICAL CO., LTD, priority 2012, published 2015).

What is called IC50 is the concentration needed to halve the response being measured. High values mean lower potency, low ones higher potency. For `CC(C)NC(=O)Cn1c(-c2cccc(Cl)c2)nc2cc(OCCCN3CCCCC3)ccc21` [Example A-1, 2-{2-(3-chlorophenyl)-5-[3-(piperidin-1-yl)propoxy]-1H-benzimidazol-1-yl}-N-isopropyl acetamide], the IC50 in assay [1] amounted to 212 nM; in assay [2] it was 14.4 nM. The like results for `COc1cc(-c2nc3cc(OCCCN4CCCCC4)ccc3n2CC(=O)NC(C)C)ccc1F` [Example A-5, 2-{2-(4-fluoro-3-methoxyphenyl)-5-[3-(piperidin-1-yl)propoxy]-1H-benzimidazol-1-yl}-N-isopropyl acetamide] were, in that order, 122 nM and 43.3 nM.

As to `COc1cc(-c2nc3cc(OCCCN4CCOCC4)ccc3n2CC(=O)NC(C)C)ccc1F` [Example A-6, 2-{2-(4-fluoro-3-methoxyphenyl)-5-[3-(morpholin-4-yl)propoxy]-1H-benzimidazol-1-yl}-N-isopropyl acetamide], the IC50 in assay [1] is 25.9 nM; in assay [2], 29.3 nM. The corresponding values for `COc1cc(-c2nc3cc(-c4cc(Cl)cc(CN(C)C)c4)ccc3n2CC(=O)NC(C)C)ccc1F` [Example A-9, 2-[5-{3-chloro-5-[(dimethylamino)methyl]phenyl}-2-(4-fluoro-3-methoxyphenyl)-1H-benzimidazol-1-yl]-N-isopropyl acetamide] are 101 nM and 2.6 nM. Turning to `CC(C)NC(=O)Cn1c(-c2ccc(F)c(Cl)c2)nc2cc(OCCCN3CCCCC3)ccc21` [Example A-11, 2-{2-(3-chloro-4-fluorophenyl)-5-[3-(piperidin-1-yl)propoxy]-1H-benzimidazol-1-yl}-N-isopropyl acetamide], in assay [1], the IC50 was determined as 88 nM. With `CC(C)NC(=O)Cn1c(-c2ccc(F)c(Cl)c2)nc2cc(OCCCN3CCCCCC3)ccc21` [Example A-13, 2-{5-[3-(azepan-1-yl)propoxy]-2-(3-chloro-4-fluorophenyl)-1H-benzimidazol-1-yl}-N-isopropyl acetamide], the IC50 in assay [1] was found to be 62.4 nM; in assay [2], 32.9 nM. The corresponding values for `CC(C)NC(=O)Cn1c(-c2ccc(F)c(Cl)c2)nc2cc(OCCCN3CCOCC3)ccc21` [Example A-14, 2-{2-(3-chloro-4-fluorophenyl)-5-[3-(morpholin-4-yl)propoxy]-1H-benzimidazol-1-yl}-N-isopropyl acetamide] are 53.5 nM and 12.5 nM. The like results for `CC(C)NC(=O)Cn1c(-c2cccc(Cl)c2)cc2cc(OCCCN3CCCCC3)ccc21` [Example B-1, 2-{2-(3-chlorophenyl)-5-[3-(piperidin-1-yl)propoxy]-1H-indol-1-yl}-N-isopropyl acetamide] were, in that order, 97 nM and 8.7 nM. `COc1cc(-c2cc3cc(OCCCN4CCC(O)CC4)ccc3n2CC(=O)NC(C)C)ccc1F` [Example B-12, 2-{2-(4-fluoro-3-methoxyphenyl)-5-[3-(4-hydroxypiperidin-1-yl)propoxy]-1H-indol-1-yl}-N-isopropyl acetamide] had an IC50 in assay [2] of 45.3 nM. Regarding `COc1cc(-c2cc3cc(OCCCN4CCCC(O)C4)ccc3n2CC(=O)NC(C)C)ccc1F` (centres unmarked) [Example B-13, 2-{2-(4-fluoro-3-methoxyphenyl)-5-[3-(3-hydroxypiperidin-1-yl)propoxy]-1H-indol-1-yl}-N-isopropyl acetamide], in assay [2], the 50% inhibitory concentration (IC50) worked out at 87.1 nM. The same measure, in the same setting: as for `COc1cc(-c2cc3cc(OCCCN4CCC(O)C4)ccc3n2CC(=O)NC(C)C)ccc1F` (centres unmarked) [Example B-14, 2-{2-(4-fluoro-3-methoxyphenyl)-5-[3-(3-hydroxypyrrolidin-1-yl)propoxy]-1H-indol-1-yl}-N-isopropyl acetamide], the figure is 87.2 nM. Still for that read-out and setting: as for `COc1cc(-c2cc3cc(OCCCN4CC5(COC5)C4)ccc3n2CC(=O)NC(C)C)ccc1F` [Example B-15, 2-{2-(4-fluoro-3-methoxyphenyl)-5-[3-(2-oxa-6-azaspiro[3.3]hept-6-yl)propoxy]-1H-indol-1-yl}-N-isopropyl acetamide], the figure is 8.3 nM; as for `COc1cc(-c2cc3cc(OCCCN4CCC[C@H]4C)ccc3n2CC(=O)NC(C)C)ccc1F` [Example B-16, 2-[2-(4-fluoro-3-methoxyphenyl)-5-{3-[(2R)-2-methylpyrrolidin-1-yl]propoxy}-1H-indol-1-yl]-N-isopropyl acetamide], 166 nM. The same measure, in the same setting: then `CC(C)NC(=O)Cn1c(-c2cccc(Cl)c2)cc2cc(CCCCN3CCCCC3)ccc21` [Example B-18, 2-{2-(3-chlorophenyl)-5-[4-(piperidin-1-yl)butyl]-1H-indol-1-yl}-N-isopropyl acetamide], with 20.1 nM. `COc1cncc(-c2cc3cc(OCCCN4CCCCC4)ccc3n2CC(=O)NC(C)C)c1` [Example B-19, N-isopropyl-2-{2-(5-methoxypyridin-3-yl)-5-[3-(piperidin-1-yl)propoxy]-1H-indol-1-yl}acetamide] registered an IC50 in assay [2] of 387 nM. Same read-out and setting: then `COc1cccc(-c2cc3cc(OCCCN4CCCCC4)ccc3n2CC(=O)NC(C)C)c1` [Example B-20, N-isopropyl-2-{2-(3-methoxyphenyl)-5-[3-(piperidin-1-yl)propoxy]-1H-indol-1-yl}acetamide], with 129 nM. Consider `CC(C)NC(=O)Cn1c(-c2cccc(Cl)c2)cc2nc(OCCCN3CCCCC3)ccc21` [Example B-22, 2-{2-(3-chlorophenyl)-5-[3-(piperidin-1-yl)propoxy]-1H-pyrrolo[3,2-b]pyridin-1-yl}-N-isopropyl acetamide], for which the IC50 in assay [2] was found to be 47.1 nM. Same read-out and setting: then `CC(C)NC(=O)Cc1c(-c2ccc(F)c(Cl)c2)nc2cc(OCCCN3CCCCC3)ccn12` [Example C-1, 2-{2-(3-chloro-4-fluorophenyl)-7-[3-(piperidin-1-yl)propoxy]imidazo[1,2-a]pyridin-3-yl}-N-isopropyl acetamide], with 10.7 nM; and `CC(C)NC(=O)Cc1c(-c2ccc(F)c(Cl)c2)nc2cc(OCCCN3CCOCC3)ccn12` [Example C-2, 2-{2-(3-chloro-4-fluorophenyl)-7-[3-(morpholin-4-yl)propoxy]imidazo[1,2-a]pyridin-3-yl}-N-isopropyl acetamide], with 9.9 nM. `CC(C)NC(=O)Cn1c(=O)c2cc(OCCCN3CCCCC3)ccc2n1-c1cccc(Cl)c1` [Example D-1, 2-{1-(3-chlorophenyl)-3-oxo-5-[3-(piperidin-1-yl)propoxy]-1,3-dihydro-2H-indazol-2-yl}-N-isopropyl acetamide]: the IC50 in assay [2] amounted to 375 nM. The same measure, in the same setting: then `CC(C)NC(=O)Cn1c(-c2cccc(Cl)c2)cc2c1CCN(CCCCN1CCCCC1)C2` [Example E-1, 2-{2-(3-chlorophenyl)-5-[4-(piperidin-1-yl)butyl]-4,5,6,7-tetrahydro-1H-pyrrolo[3,2-c]pyridin-1-yl}-N-isopropyl acetamide], with 522 nM; and `CC(C)NC(=O)Cc1nc2cc(OCCCN3CCCCC3)ccn2c1-c1cccc(Cl)c1` [Example F-1, 2-{3-(3-chlorophenyl)-7-[3-(piperidin-1-yl)propoxy]imidazo[1,2-a]pyridin-2-yl}-N-isopropyl acetamide], with 82 nM.
